Experimental data published in US10961196B2, “Compounds for use as an anti-bacterial or anti-fungal agent and as a zinc sensor” (UNIVERSITÄT KONSTANZ, priority 2016, dated 2021).
Where “and” joins values, the source holds several entries; their conditions need not be identical. Equal values may be shown once. Read-outs that look alike come from different tables or passages of the source. One block for each compound: values may come before it.

Assays:
S. aureus NCTC 8325 = experiment: Minimum inhibitory concentration (MIC), 96-well plates, serial dilutions in LB medium; format: cell-based; conditions: Staphylococcus aureus
Excerpt: (§1) Example 12: Determination of the Minimum Inhibitory Concentration (MIC) with Non-Pathogenic E. coli and B. subtilis and/or Pathogenic Strains of S. aureus Including Three MRSA Strains (USA 300, Mu50 and DSM18827) as Well as the Pathogenic Fungus Candida albicans
(§2) Minimum inhibitory concentrations (MIC) for compounds 1 to 11 with non-pathogenic E. coli and B. subtilis and/or pathogenic strains of S. aureus including three MRSA strains (USA 300, Mu50 and DSM18827) as well as the pathogenic fungus Candida albicans were determined in 96-well plates with serial dilutions in LB medium.

E. coli K12 = experiment: as above; format: cell-based; conditions: Escherichia coli
Excerpt: as §1, §2

B. subtilis = experiment: as above; format: cell-based; conditions: Bacillus subtilis, read-out: Minimum inhibitory concentration (MIC)
Excerpt: as §1, §2

S. aureus USA 300 (MRSA) = experiment: as above; format: cell-based; conditions: Staphylococcus aureus, read-out: Minimum inhibitory concentration (MIC)
Excerpt: as §1, §2
Example 21: Determination of the Minimum Inhibitory Concentration (MIC) for the Compounds Represented by the Formulas (14) and (16) with the Pathogenic USA 300 (MRSA) Strain of S. aureus
Minimum inhibitory concentrations (MIC) for the compounds represented by the Formulas (14) and (16) with the pathogenic MRSA strains of S. aureus USA 300 were determined in 96-well plates with serial dilutions in LB medium.

[1] = test system: human embryonic kidney cell line HEK-293; experiment: Toxicological testing, viability by resazurin reduction after 24 h; format: cell-based; conditions: HEK-293, 0-100 μM tested
Experimental: Example 13: Toxicological Testing with Human Embryonic Kidney Cell Line HEK-293
Compounds 3, 5, and 10 were toxicologically tested with human embryonic kidney cell line HEK-293 at concentrations varying from 0 to 100 μM (cf. FIGS. 1 to 3). The viability was measured by resazurin reduction after 24 h.

[2] = test system: developing neurons (LUHMES d2-3); experiment: Toxicological testing with developing neurons in the LUHMES d2-3 assay; format: cell-based; conditions: 0-100 μM tested
Experimental: Example 14: Toxicological Testing with Developing Neurons in the LUHMES d2-3 Assay
Compounds 3, 5, and 10 were toxicologically tested with developing neurons in the LUHMES d2-3 assay at concentrations varying from 0 to 100 μM (cf. FIGS. 4 to 6). […] In the case of compound 5 (cf. FIG. 5), general cytotoxicity (orange line) and inhibition of neurite outgrowth each started above 40 μM (green line). For compound 10 (cf. FIG. 6), general cytotoxicity (orange line) started at 80 μM and inhibition of neurite outgrowth started at 40 μM (green line).

S. aureus Mu50 (MRSA) [3] = experiment: Minimum inhibitory concentration (MIC), 96-well plates, serial dilutions in LB medium; format: cell-based; conditions: Staphylococcus aureus, read-out: Minimum inhibitory concentration (MIC)
Excerpt: as §1, §2

Candida albicans = experiment: as above; format: cell-based; conditions: read-out: Minimum inhibitory concentration (MIC)
Excerpt: as §1, §2

[4] = test system: S. aureus DSM18827 (MRSA); experiment: as above; format: cell-based; conditions: Staphylococcus aureus, DSM 11827 / DSM 18827 / MRSA, read-out: Minimum inhibitory concentration (MIC)
Excerpt: as §1, §2

Neisseria gonorrhoeae = experiment: Growth curves in comparison to an untreated and a DMSO treated control; format: cell-based
Experimental: Example 24: Determination of the Inhibitory Effect of 1-S-PQS (5) and the Compound Represented by the Formula (14) Against Neisseria gonorrhoeae by Measuring Growth Curves in Comparison to an Untreated and a DMSO Treated Control
The inhibitory effect of 1-S-PQS (5) and the compound represented by the Formula (14) against Neisseria gonorrhoeae was determined by measuring growth curves in comparison to an untreated and a DMSO treated control (cf. FIGS. 17 to 19). […] The compound represented by the Formula (14) was effective against N. gonorrhoeae around 25-50 μM (cf. FIG. 19).

Moraxella catarrhalis = experiment: as above; format: cell-based
Experimental: (§3) Example 22: Determination of the Inhibitory Effect of 1-S-PQS (5) Against Moraxella catarrhalis and Neisseria meningitidis by Measuring Growth Curves in Comparison to an Untreated and a DMSO Treated Control
(§4) The inhibitory effect of 1-S-PQS (5) against Moraxella catarrhalis and Neisseria meningitidis was determined by measuring growth curves in comparison to an untreated and a DMSO treated control (cf. FIGS. 11 to 14). […] M. catarrhalis is an important human pathogen responsible for otitis media in children and chronic obstructive pulmonary disease (COPD) in adults.
Example 23: Determination of the Inhibitory Effect of the Compound Represented by the Formula (14) Against Moraxella catarrhalis by Measuring Growth Curves in Comparison to an Untreated and a DMSO Treated Control
The inhibitory effect of the compound represented by the Formula (14) against Moraxella catarrhalis was determined by measuring growth curves in comparison to an untreated and a DMSO treated control (cf. FIGS. 15 and 16).

Neisseria meningitidis = experiment: as above; format: cell-based
Experimental: as §3, §4

elastase (LasB) = elastase (LasB) (Pseudomonas aeruginosa, UniProt P14756); experiment: In vitro elastase assay with fluorogenic substrate Abz-peptide-Nba; format: biochemical, P. aeruginosa
Experimental: Example 16: In Vitro Inhibition of Elastase (LasB) with Compounds 6, 7, and 12
An in-vitro elastase assay was performed according to Cathcart et al. (G. R. Cathcart, B. F. Gilmore, B. Greer, P. Harriott, B. Walker, Bioorganic & medicinal chemistry letters 2009, 19, 6230-6232). For a typical in vitro elastase assay 82 μL buffer (0.05 M TRIS HCl, 2.5 mM CaCl2, pH=7.2) and 5 μL of compound 6 solved in DMSO were added in a 96 well plate. 10 μL of 3 μg/mL elastase (solved in the same Tris/CaCl2 buffer) were added and mixed with the compound. After incubation for 10 min at room temperature, 3 μL fluorogenic substrate Abz-peptide-Nba (2-aminobenzoyl-Ala-Gly-Leu-Ala-4-nitrobenzylamide) in DMF were added and the fluorescence measured for 90 min in one minute steps (excitation at 330 nm, emission at 460 nm). The slope of the resulting graph was used to calculate the enzymatic activity.

S. aureus Mu50 (MRSA) [5] = conditions: cited from earlier work; for MIC of known antibiotics: comparison values
[6] = NCTC8325, read-out: Minimum inhibitory concentration (MIC)
[7] = S. aureus USA 300 (MRSA), LB medium
[8] = 5 μM was the lowest concentration tested
[9] = NCTC8325, S. aureus NCTC 8325, LB medium, read-out: Minimum inhibitory concentration (MIC)
[10] = S. aureus Mu50 (MRSA), LB medium
[11] = S. aureus DSM18827 (also printed DSM11827), MRSA, LB medium

elastase (LasB), sequence (P14756 198-498): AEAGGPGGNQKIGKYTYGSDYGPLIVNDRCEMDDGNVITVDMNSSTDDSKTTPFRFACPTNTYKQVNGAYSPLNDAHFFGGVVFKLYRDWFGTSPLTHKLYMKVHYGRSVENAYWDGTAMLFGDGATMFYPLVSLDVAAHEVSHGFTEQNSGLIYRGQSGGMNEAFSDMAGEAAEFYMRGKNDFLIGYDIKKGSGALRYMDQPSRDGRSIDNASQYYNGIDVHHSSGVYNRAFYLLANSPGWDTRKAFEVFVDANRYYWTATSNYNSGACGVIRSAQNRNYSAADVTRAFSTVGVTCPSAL

SMILES: CCCCCCCc1cc(=O)c2ccccc2[nH]1 [Compound 1, 2-heptyl-4-quinolone, reference compound]
MIC (S. aureus NCTC 8325; [6]): > 1000 µM and > 243 µg/mL | MIC (E. coli K12): > 1000 µM and > 243 µg/mL | MIC (B. subtilis): > 1000 µM and > 243 µg/mL

SMILES: CCCCCCCc1cc(=O)c2ccccc2[te]1 [Compound 2, 2-heptyl-4H-tellurochromen-4-one]
MIC (B. subtilis): 100 µM to 250 µM and 36 µg/mL to 89 µg/mL

SMILES: CCCCCCCc1c/c(=N/O)c2ccccc2[nH]1 [Compound 3, 2-heptylquinolin-4(1H)-one oxime]
MIC (S. aureus USA 300 (MRSA)): 60 µM and 15.5 µg/mL | Concentration at which cell toxicity starts [1]: 40 µM | Concentration at which general cytotoxicity starts [2]: above 10 μM | Concentration at which inhibition of neurite outgrowth starts [2]: above 2.5 μM | MIC (S. aureus NCTC 8325; [6]): 60 µM and 15.5 µg/mL | MIC (E. coli K12): 300 µM and 78 µg/mL | MIC (S. aureus Mu50 (MRSA) [3]; MRSA): 60 µM and 15.5 µg/mL | MIC (Candida albicans): 100 µM and 25.8 µg/mL | MIC [4]: 60 µM and 15.5 µg/mL | MIC (B. subtilis): 50 µM and 12.9 µg/mL

SMILES: CCCCCCCc1[nH]c2ccccc2c(=O)c1O [Compound 4, 2-heptyl-3-hydroxy-4-quinolone, reference compound]
MIC (S. aureus NCTC 8325; [6]): > 1000 µM and > 259 µg/mL | MIC (E. coli K12): > 1000 µM and > 259 µg/mL | MIC (B. subtilis): > 1000 µM and > 259 µg/mL

MIC (S. aureus USA 300 (MRSA); [7]): 30 µM and 8.29 µg/mL | MIC (S. aureus NCTC 8325; [9]): 30 µM and 8.29 µg/mL | MIC (S. aureus Mu50 (MRSA) [3]; [10]): 25 µM and 6.91 µg/mL | MIC [4, 11]: 35 µM and 9.67 µg/mL | MIC (B. subtilis; B. subtilis, LB medium): 25 µM and 6.91 µg/mL
SMILES: CCCCCCCc1sc2ccccc2c(=O)c1O [Compound 5, 2-heptyl-3-hydroxy-4H-thiochromen-4-one]
Concentration at which growth was completely inhibited (Neisseria gonorrhoeae): 25 µM | Growth relative to DMSO control (Moraxella catarrhalis; 5 μM): 0.1 | Concentration at which growth was completely inhibited (Moraxella catarrhalis; [8]): ≤ 5 µM | Growth relative to DMSO control (Moraxella catarrhalis; 10 μM): 0.0 | Growth relative to DMSO control (Moraxella catarrhalis; 25 μM): 0.0 | Growth relative to DMSO control (Moraxella catarrhalis; 50 μM): 0.0 | Concentration at which growth was completely inhibited (Moraxella catarrhalis; lowest concentration tested (5 μM) expressed in μg/mL): ≤ 1.4 µg/mL | Concentration at which general cytotoxicity starts [2]: above 40 μM | Concentration at which inhibition of neurite outgrowth starts [2]: above 40 μM | Concentration at which growth was completely inhibited (Neisseria meningitidis): 10 µM | Growth relative to DMSO control (Neisseria meningitidis; 5 μM): 0.4 | Growth relative to DMSO control (Neisseria meningitidis; 10 μM): 0.0 | Growth relative to DMSO control (Neisseria meningitidis; 25 μM): 0.0 | Growth relative to DMSO control (Neisseria meningitidis; 50 μM): 0.0

SMILES: CCCCCCCc1oc2ccccc2c(=S)c1O [Compound 7, 2-heptyl-3-hydroxy-4H-chromene-4-thione]
MIC (S. aureus USA 300 (MRSA); [7]): 60 µM and 16.6 µg/mL | IC50 (elastase (LasB)): 2000 nM | MIC (S. aureus NCTC 8325; [9]): 60 µM and 16.6 µg/mL | MIC (S. aureus Mu50 (MRSA) [3]; [10]): 50 µM and 13.8 µg/mL | MIC [4, 11]: 72.5 µM and 20 µg/mL

SMILES: CCCCCCCc1[nH]c2ccccc2/c(=N\O)c1O [Compound 8, 2-heptyl-3-hydroxyquinolin-4(1H)-one oxime]
MIC (S. aureus USA 300 (MRSA)): 100 µM and 27.4 µg/mL | MIC (S. aureus NCTC 8325; [6]): 200 µM and 54.9 µg/mL | MIC (S. aureus Mu50 (MRSA) [3]; MRSA): 100 µM and 27.4 µg/mL | MIC [4]: 150 µM and 41.1 µg/mL

SMILES: Cc1sc2ccccc2c(=O)c1O [Compound 9, 3-hydroxy-2-methyl-thiochromen-4-one]
MIC (S. aureus USA 300 (MRSA)): > 1000 µM and > 192 µg/mL | MIC (S. aureus NCTC 8325; [6]): > 1000 µM and > 192 µg/mL | MIC (S. aureus Mu50 (MRSA) [3]; MRSA): > 1000 µM and > 192 µg/mL | MIC [4]: > 1000 µM and > 192 µg/mL

MIC (S. aureus USA 300 (MRSA); [7]): 50 µM and 11.7 µg/mL | MIC (S. aureus NCTC 8325; [9]): 50 µM and 11.7 µg/mL | MIC (S. aureus Mu50 (MRSA) [3]; [10]): 50 µM and 11.7 µg/mL | MIC [4, 11]: 50 µM and 11.7 µg/mL
SMILES: CCCCc1sc2ccccc2c(=O)c1O [Compound 10, 3-hydroxy-2-butyl-thiochromen-4-one]
Concentration at which general cytotoxicity starts [2]: 80 µM | Concentration at which inhibition of neurite outgrowth starts [2]: 40 µM

MIC (S. aureus USA 300 (MRSA); [7]): 35 µM and 10.3 µg/mL | MIC (S. aureus NCTC 8325; [9]): 35 µM and 10.3 µg/mL | MIC (S. aureus Mu50 (MRSA) [3]; [10]): 40 µM and 11.8 µg/mL | MIC [4, 11]: 40 µM and 11.8 µg/mL
SMILES: CCCCCCCc1sc2ccc(F)cc2c(=O)c1O [Compound 11, 6-fluoro-2-heptyl-3-hydroxy-4H-thiochromen-4-one]

SMILES: CCCCCCCc1sc2ccccc2c(=S)c1O [Compound 12, 2-heptyl-3-hydroxy-4H-thiochromene-4-thione]
IC50 (elastase (LasB)): 2000 nM

MIC (S. aureus USA 300 (MRSA); [7]): 40 µM and 11.3 µg/mL
SMILES: O=c1c(O)c(CCc2ccccc2)sc2ccccc12 [Formula (14)]
Concentration at which the compound was effective (Neisseria gonorrhoeae): 25 to 50 µM | Concentration at which growth was completely inhibited (Moraxella catarrhalis; [8]): ≤ 5 µM

MIC (S. aureus USA 300 (MRSA); [7]): > 100 µM and > 32 µg/mL
SMILES: CCCCCCCCCCc1sc2ccccc2c(=O)c1O [Formula (16)]

SMILES: CC1(C)S[C@@H]2[C@H](NC(=O)[C@H](N)c3ccccc3)C(=O)N2[C@H]1C(=O)O [ampicillin]
MIC of known antibiotics (S. aureus Mu50 (MRSA) [5]): 37 µg/mL

SMILES: O=C(O)c1cn(C2CC2)c2cc(N3CCNCC3)c(F)cc2c1=O [ciprofloxacin]
MIC of known antibiotics (S. aureus Mu50 (MRSA) [5]): 66 µg/mL

SMILES: CC[C@H]1OC(=O)[C@H](C)[C@@H](O[C@H]2C[C@@](C)(OC)[C@@H](O)[C@H](C)O2)[C@H](C)[C@@H](O[C@@H]2O[C@H](C)C[C@H](N(C)C)[C@H]2O)[C@](C)(O)C[C@@H](C)C(=O)[C@H](C)[C@@H](O)[C@]1(C)O [erythromycin]
Concentration to inhibit growth (commercial antibiotics) (S. aureus Mu50 (MRSA) [5]; background section): > 1 mM
